# Assay results: paper PMC9848351, “Discovery of new pyridine-quinoline hybrids as competitive and non-competitive PIM-1 kinase inhibitors with apoptosis induction and caspase 3/7 activation capabilities” (Journal of Enzyme Inhibition and Medicinal Chemistry, 2023)
# How the values were obtained:
# [1] = test system: liver cancer cell line (HepG-2); assay: MTT anticancer activity, HepG-2; type: cell-based, human; conditions: Homo sapiens, HepG2; HepG-2, 72 h, MTT; mean ± SEM
# Procedure: (§1) Anticancer effect of the above-mentioned compounds was evaluated using four human cancer cell lines. Colon cancer cells (Caco-2), myeloid leukaemia cell line (NFS-60), liver cancer cell line (HepG-2) and prostate cancer cell line (PC-3) using MTT method was used for assaying cell viability[26] (Supplementary Page S55).
# (§2) All final compounds were evaluated against four human cancer cell lines namely; liver cancer (HepG2) (ATCC® HB-8065™), colon cancer (Caco-2) (ATCC® HTB-37™), leukaemia cancer (NFS-60) (ATCC® CRL-1838™), and prostate cancer (PC-3) (ATCC® CRL-1435™) using doxorubicin (Dox) as the reference drug being widely used in tumour management utilising microculture MTT assay, declared by Mosmann[26] (Table 1 in Supplementary Material, Figures 5–8). […]
# (§3) MTT method was used for assaying cell viability 25. Twenty microliters of 5 mg/ml MTT (Sigma, USA) was added to each well and the plate was incubated at 37 °C for 3 h. Then MTT solution was removed, 100 µl DMSO was used and the absorbance of each well was measured with a microplate reader ( BMG LabTech, Germany) at 570 nm. The effective concentration (IC 50) and safe dose (EC100) values of the tested compounds that cause 50% and 100% cell viability were estimated by the Graphpad Instat software.
# (§4) Determination of the anticancer activity
# (§5) Anticancer effect of the above-mentioned compounds was evaluated using four human cancer cell lines. Colon cancer cells (Caco-2) were maintained in DMEM (Lonza, USA) containing 10% FBS while myeloid leukemia cell line (NFS-60), liver cancer cell line (HepG-2) and prostate cancer cell line (PC-3) were cultured in RPMI-1640 (Lonza, USA) supplemented with 10% FBS. All cancer cells (5x10^3 cells/well) were seeded in sterile 96-well plates. After 24h, serial concentrations of the tested compounds and Dox were incubated with four cancer cell lines for 72 h at 37 °C in 5% CO2 incubator. MTT method was done as described above. The Graphpad Instat software was used for calculating the half maximal inhibitory concentration (IC50) values. Furthermore, phase contrast inverted microscope with a digital camera (Olympus, Japan) was used for investigating […]
# (§6) safest anticancer compounds. […]
# [2] = test system: normal human lung fibroblast Wi-38 cell line; assay: MTT cytotoxicity on normal cells; type: cell-based; conditions: Wi-38, 72 h, MTT, mean ± SEM; for EC50: Homo sapiens, 50% cell viability; for Wi-38 EC100: safe dose, 100% cell viability
# Procedure: Cytotoxicity of the tested compounds was evaluated using normal human lung fibroblast Wi-38 cell line compared to currently used anticancer drug (doxorubicin) using MTT method was used for assaying cell viability[26] (Supplementary Page S55).
# Cytotoxicity test is one of the biological evaluations and screening tests that use human normal and cancer cells in-vitro to observe the effect of the studied compounds on their growth using MTT-based cytotoxicity. Microculture MTT method[26] was used to determine cytotoxic activity of the newly synthesised compounds against normal human lung fibroblast (Wi-38) using doxorubicin (Dox) as standard anticancer drug. The highest IC50 and EC100 values illustrate that the compounds were safe on the proliferation of normal human cells. […]. page 47:
# (§7) Cytotoxicity of the tested compounds was evaluated using normal human lung fibroblast Wi-38 cell line compared to currently used anticancer drug (doxorubicin).
# as §3, with “Firstly, Wi-38 cell line was subcultured in DMEM medium-contained 10% fetal bovine serum (FBS), then, seeded as 5x10^3 cells per well in 96-well cell culture plate and incubated at 37 °C in 5% CO 2 incubator. Serial concentrations of these compounds and doxorubicin (Dox) were incubat ed with Wi-38 cells for 72 h after 24 h for cell attachment. MTT method” for “MTT method”, “Instat software. […]” for “Instat software.”
# [3] = test system: myeloid leukaemia cell line (NFS-60); assay: MTT anticancer activity, NFS-60; type: cell-based; conditions: NFS-60, 72 h, MTT; mean ± SEM
# Procedure: as §1, §2, §3, §4, §5, §6
# [4] = test system: prostate cancer cell line (PC-3); assay: MTT anticancer activity, PC-3; type: cell-based, human; conditions: Homo sapiens, 72 h, PC-3, 72 h, mean ± SEM
# Procedure: as §1, §2, §3, §4, §5, §6
# [5] = test system: Colon cancer cells (Caco-2); assay: MTT anticancer activity, Caco-2; type: cell-based, human; conditions: for IC50: Homo sapiens, Caco-2, 72 h, MTT, mean ± SEM; for Caco-2 SI: selectivity index, Wi-38 versus Caco-2
# Procedure: as §1
# All final compounds were evaluated against four human cancer cell lines namely; liver cancer (HepG2) (ATCC® HB-8065™), colon cancer (Caco-2) (ATCC® HTB-37™), leukaemia cancer (NFS-60) (ATCC® CRL-1838™), and prostate cancer (PC-3) (ATCC® CRL-1435™) using doxorubicin (Dox) as the reference drug being widely used in tumour management utilising microculture MTT assay, declared by Mosmann[26] (Table 1 in Supplementary Material, Figures 5–8).
# as §7
# as §3, with “Firstly, Wi-38 cell line was subcultured in DMEM medium-contained 10% fetal bovine serum (FBS), then, seeded as 5x10^3 cells per well in 96-well cell culture plate and incubated at 37 °C in 5% CO 2 incubator. Serial concentrations of these compounds and doxorubicin (Dox) were incubat ed with Wi-38 cells for 72 h after 24 h for cell attachment. MTT method” for “MTT method”
# as §4, §5, §6
SMILES,IC50 [1] [nM],IC50 [3] [nM],melting point [°C],IC50 [4] [nM],IC50 [5] [nM],EC50 [2] [nM],Wi-38 EC100 [2] [µM],Caco-2 SI [5]
"COc1ccc2nc(N3CCOCC3)c(-c3cc(-c4cccc(OC(C)=O)c4)[nH]c(=O)c3C#N)cc2c1 [7c, 3-(5-Cyano-4-(6-methoxy-2-morpholin-4-yl-quinolin-3-yl)-6-oxo-1,6-dihydropyridin-2-yl)phenyl acetate]",142.1 ± 1,153 ± 34,> 300,101 ± 1,127 ± 14,137 ± 0.1,0.094 ± 0.005,1.079
"CC(=O)Oc1cccc(-c2cc(-c3cc4cc(Cl)ccc4nc3N3CCOCC3)c(C#N)c(=O)[nH]2)c1 [7b, 3-(4-(6-Chloro-2-morpholin-4-yl-quinolin-3-yl)-5-cyano-6-oxo-1,6-dihydropyridin-2-yl)phenyl acetate]",101.6 ± 1,107 ± 1,189 to 190,135 ± 2,119 ± 16,140 ± 9,0.110 ± 0.002,1.176
"N#Cc1c(-c2cc3cc(Cl)ccc3nc2N2CCCCC2)cc(-c2cccc(O)c2)[nH]c1=O [5e, 4-(6-Chloro-2-(piperidin-1-yl)quinoline-3-yl)-6-(3-hydroxyphenyl)-2-oxo-1,2-dihydropyridine-3-carbonitrile]",36.1 ± 1,62.7 ± 27,> 300,40.9 ± 1,51.7 ± 5,27.6 ± 1,0.0234 ± 0.001,0.534
"N#Cc1c(-c2cc3ccccc3nc2N2CCCCC2)cc(-c2cccc(O)c2)[nH]c1=O [5d, 6-(3-Hydroxyphenyl)-2-oxo-4-(2-(piperidin-1-yl)quinoline-3-yl)-1,2-dihydropyridine-3-carbonitrile]",89.7 ± 13,71.3 ± 3,244 to 246,53.4 ± 4,38.6 ± 1,29.9 ± 0.1,0.0239 ± 0.0003,0.775

# Continued, in another order:
IC50 [1] [nM],IC50 [3] [nM],melting point [°C],IC50 [4] [nM],IC50 [5] [nM],SMILES,EC50 [2] [nM],Wi-38 EC100 [2] [µM],Caco-2 SI [5]
30.9,33.7,> 300,38.8 ± 3,48.4 ± 5,"N#Cc1c(-c2cc3cc(Cl)ccc3[nH]c2=O)cc(-c2cccc(O)c2)[nH]c1=O [13b, 4-(6-Chloro-2-oxo-1,2-dihydroquinolin-3-yl)-6-(3-hydroxyphenyl)-2-oxo-1,2-dihydropyridine-3-carbonitrile]",48.6 ± 16,0.017 ± 0.002,1.005
48.6,523 ± 40,> 300,63.4 ± 2,34.7 ± 3,"COc1ccc(NC(=O)COc2nc(-c3cccc(O)c3)cc(-c3cc4cc(OC)ccc4nc3N3CCOCC3)c2C#N)cc1 [11i, 2-((3-Cyano-6-(3-hydroxyphenyl)-4-(6-methoxy-2-morpholin-4-yl-quinolin-3-yl)pyridin-2-yl)oxy)-N-(4-methoxyphenyl)acetamide]",258 ± 31,0.148 ± 0.0001,7.435
62.8 ± 1,103 ± 9,269 to 270,83.9 ± 3,62.6 ± 1,"COc1ccc2nc(N3CCOCC3)c(-c3cc(-c4cccc(O)c4)nc(OCC(=O)Nc4ccccc4)c3C#N)cc2c1 [11g, 2-((3-Cyano-6-(3-hydroxyphenyl)-4-(6-methoxy-2-morpholin-4-yl-quinolin-3-yl)pyridin-2-yl)oxy)-N-phenylacetamide]",186 ± 10,0.0450 ± 0.005,2.971
86.7 ± 3,96.1 ± 2,274 to 275,46.2 ± 2,52.6 ± 0.1,"COc1ccc2nc(N3CCOCC3)c(-c3cc(-c4cccc(O)c4)nc(OCC(=O)O)c3C#N)cc2c1 [9c, 2-((3-Cyano-6-(3-hydroxyphenyl)-4-(6-methoxy-2-morpholin-4-yl-quinolin-3-yl)pyridin-2-yl)oxy)acetic acid]",276 ± 2,0.0754 ± 0.003,5.247
45.4,380 ± 10,279 to 280,97.3 ± 8,55.2 ± 2,"N#Cc1c(-c2cc3cc(Cl)ccc3nc2N2CCOCC2)cc(-c2cccc(O)c2)nc1OCC(=O)O [9b, 2-((4-(6-Chloro-2-morpholin-4-yl-quinolin-3-yl)-3-cyano-6-(3-hydroxyphenyl)pyridin-2-yl)oxy)acetic acid]",171 ± 1,0.134 ± 0.01,3.098
55.7,96.5 ± 4,278 to 280,62.6 ± 0.1,84.2 ± 5,"COc1ccc2[nH]c(=O)c(-c3cc(-c4cccc(O)c4)nc(S)c3C#N)cc2c1 [14c, 6-(3-Hydroxyphenyl)-2-mercapto-4-(6-methoxy-2-oxo-1,2-dihydroquinolin-3-yl)pyridine-3-carbonitrile]",166 ± 9,0.0972 ± 0.005,1.971
71.5 ± 1,181 ± 7,279 to 280,130 ± 11,63 ± 2,"N#Cc1c(-c2cc3ccccc3nc2N2CCOCC2)cc(-c2cccc(O)c2)nc1OCC(=O)Nc1ccc(Cl)cc1 [11b, N-(4-Chlorophenyl)-2-((3-cyano-6-(3-hydroxyphenyl)-4-(2-morpholin-4-yl-quinolin-3-yl)pyridin-2-yl)oxy)acetamide]",337 ± 24,0.00232 ± 0.001,5.349
78.2 ± 2,92.3 ± 0.1,179 to 180,84.7 ± 3,73.9 ± 0.1,"N#Cc1c(-c2cc3ccccc3nc2N2CCOCC2)cc(-c2cccc(O)c2)nc1OCC(=O)O [9a, 2-((3-Cyano-6-(3-hydroxyphenyl)-4-(2-morpholin-4-yl-quinolin-3-yl)pyridin-2-yl)oxy)acetic acid]",159 ± 4,0.0254 ± 0.002,2.152
